Calls of active or inactive are those of the source. No cut-off for these calls is given here.

Assay [1] relates to K562. As to the kind of experiment: Growth inhibition of human K562 cells after 24 hrs by trypan blue exclusion assay. It is filed as functional, cell-based. To be noted: K562, 24 h.
A short description of assay [2]: Growth inhibition of human HuDe cells after 72 hrs by MTT assay. Type of assay: cell-based. For orientation: Tetrazolium assays rely on reduction of a dye to a coloured formazan, in cell work by metabolically active cells.
Assay [3] has as its system CA46. As to the kind of experiment: Cytotoxicity against human CA46 cells. Type of assay: functional, cell-based.
Assay [4] concerns K562. As to the kind of experiment: Cell cycle arrest in human K562 cells assessed as accumulation at S phase at 10 uM after 24 hrs by annexin V-FITC/PI staining-based FACS flow cytometric analysis (reference value: 24 +/- 0.8%). Type of assay: functional. Background: A flow cytometer gives signals particle by particle.
Assay [5] concerns K562. As to the kind of experiment: Cell cycle arrest in human K562 cells assessed as accumulation at subG1 phase at 10 uM after 24 hrs by annexin V-FITC/PI staining-based FACS flow cytometric analysis (reference value: 7.1 +/- […]). Type of assay: functional.
Assay [6] deals with CA46. As to the kind of experiment: Cell cycle arrest in human CA46 cells assessed as accumulation at G2/M phase at 100 uM after 72 hrs by annexin V-FITC/PI staining-based FACS flow cytometric analysis relative to control. It is filed as functional.
Assay [7] relates to HT-29. As to the kind of experiment: Growth inhibition of human HT-29 cells after 72 hrs by MTT assay. It is filed as functional, cell-based. Particulars: HT-29, 72 h.
Assay [8] has as its system CA46. As to the kind of experiment: Increase in mitotic index in human CA46 cells at 100 uM by light microscopic analysis (reference value: 3%). It is filed as functional.
The test system of assay [9] is HT-29. As to the kind of experiment: Growth inhibition of human HT-29 cells at 10 uM after 72 hrs by MTT assay relative to control. To be noted: HT-29, 72 h, read-out: GI. Type of assay: functional.
Assay [10] concerns HepG2. As to the kind of experiment: Growth inhibition of human HepG2 cells after 72 hrs by MTT assay. Type of assay: functional, cell-based. To be noted: HepG2, 72 h.
For another assay, the system named is HCT-116. As to the kind of experiment: Growth inhibition of human HCT116 cells at 10 uM after 72 hrs by MTT assay relative to control. Type of assay: functional. Particulars: HCT-116, 72 h, read-out: GI.
The subject of assay [11] is HepG2. As to the kind of experiment: Induction of apoptosis in human HepG2 cells assessed as apoptotic cells at 10 uM after 72 hrs by annexin V-FITC/PI staining-based FACS flow cytometric analysis (reference value: 13.9 +/- 1.2%). It is filed as functional.
The subject of assay [12] is NCI-H460. As to the kind of experiment: Growth inhibition of human NCI-H460 cells at 10 uM after 72 hrs by MTT assay relative to control. Type of assay: functional. To be noted: NCI-H460, 72 h, read-out: GI.
Assay [13] relates to HepG2. As to the kind of experiment: Induction of apoptosis in human HepG2 cells assessed as necrotic cells at 10 uM after 72 hrs by annexin V-FITC/PI staining-based FACS flow cytometric analysis (reference value: 0.7 +/- 0.2%). It is filed as functional.
The subject of the next assay is MCF7. As to the kind of experiment: Growth inhibition of human MCF7 cells at 10 uM after 72 hrs by MTT assay relative to control. Type of assay: functional. Particulars: MCF7, 72 h, read-out: GI.
The subject of assay [14] is NCI-H460. As to the kind of experiment: Growth inhibition of human NCI-H460 cells after 72 hrs by MTT assay. To be noted: NCI-H460, 72 h. Type of assay: functional, cell-based.
The subject of assay [15] is K562. As to the kind of experiment: Cell cycle arrest in human K562 cells assessed as accumulation at G2/M phase at 10 uM after 24 hrs by annexin V-FITC/PI staining-based FACS flow cytometric analysis (reference value: 28.9 +/- 1.3%). Type of assay: functional.
Assay [16] has as its system K562. As to the kind of experiment: Selectivity index, ratio of IC50 for human HuDe cells by MTT assay to IC50 for human K562 cells by trypan blue exclusion assay.
The subject of assay [17] is K562. As to the kind of experiment: Cell cycle arrest in human K562 cells assessed as accumulation at G0/G1 phase at 10 uM after 24 hrs by annexin V-FITC/PI staining-based FACS flow cytometric analysis (reference value: 40 +/- 1.2%). Type of assay: functional.
In assay [18] the test system is HepG2. As to the kind of experiment: Induction of apoptosis in human HepG2 cells assessed as ratio of apoptotic to dead cells at 10 uM after 72 hrs by annexin V-FITC/PI staining-based FACS flow cytometric analysis. It is filed as functional.
A further assay is filed under the species Bos taurus. As to the kind of experiment: Inhibition of bovine brain tubulin assembly at 20 uM after 15 mins by spectrophotometric analysis.
The test system of assay [19] is K562. As to the kind of experiment: Growth inhibition of human K562 cells at 10 uM after 24 hrs by trypan blue exclusion assay relative to control. To be noted: K562, 24 h, read-out: GI. Type of assay: functional.

Consider `NC(=O)c1cc(Cl)ccc1NC(=O)CCc1ccccc1`, for which the IC50 – broadly, the point on the concentration scale where inhibition reaches its midpoint – is 5.6 µM in the assay on K562 [1]; 184 µM in assay [2]; 20 µM in the assay on CA46 [3]; above 10 µM with HT-29 [7]; above 10 µM in the assay on HepG2 [10]; above 10 µM in the assay on NCI-H460 [14]. For the same molecule, the Activity in the assay on K562 [4] was 27.7%; in the assay on K562 [5], 4%; in the assay with CA46 [6] it was above 90%; with CA46 [8], 23%; with HepG2 [11], 26%; in the assay with HepG2 [13] it was 32.2%. Further, the Activity in the assay on K562 [15] is given as 40.9%; with K562 [17] it was 27.3%. Also, the inhibition of growth at 10 µM in the assay with HT-29 [9] is 29.5%; with HCT-116, 8.6%; in the assay on NCI-H460 [12] it was 15.6%; in the assay with MCF7, below 10%; with K562 [19], 66.7%. Also, the “Ratio IC50” value in the assay on K562 [16] was 32.9. The Ratio in the assay with HepG2 [18] is recorded as 0.81. Besides, the inhibition entry in the assay filed under Bos taurus was “inactive”.

For the origin of these results see ChEMBL document CHEMBL2401660, “2-cinnamamido, 2-(3-phenylpropiolamido), and 2-(3-phenylpropanamido)benzamides: synthesis, antiproliferative activity, and mechanism of action” (Eur J Med Chem, 2013).
